The target in one experiment is T1, HA-PsAarA (Providencia stuartii, UniProt P46116).
T1 construct: GST (cleaved yes); made in house; host or cells: E. coli C43 (DE3)
T1 sequence (P46116 whole entry, looked up): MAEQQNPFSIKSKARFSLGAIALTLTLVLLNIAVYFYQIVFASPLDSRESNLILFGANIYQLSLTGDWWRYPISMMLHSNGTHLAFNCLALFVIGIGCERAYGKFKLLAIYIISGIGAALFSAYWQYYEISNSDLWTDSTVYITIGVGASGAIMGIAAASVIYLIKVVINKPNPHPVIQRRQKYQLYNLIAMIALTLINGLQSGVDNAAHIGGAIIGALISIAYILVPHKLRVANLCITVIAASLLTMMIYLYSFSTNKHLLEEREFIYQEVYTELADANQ
The experiment in a line: Real-time kinetics of substrate variants in proteoliposomes. In kind it is biochemical. The note with it: in words. As for the experimental part: (§1) 30 μg of E. coli liposomes were mixed with 50 mM NaAcetate pH 4.0, 150 mM NaCl, 0.05 to 500 pmoles of rhomboid enzyme, and 20 to 1600 pmoles of FITC-substrate. This co-reconstitution mix was diluted 20-fold with 12.5 mM NaAcetate pH 4.0, 37.5 mM NaCl to reduce detergent below its critical micelle concentration and promote reconstitution. Proteoliposomes were collected by ultracentrifugation at 600,000 g for 20 minutes in an Optima MAX-XP ultracentrifuge (Beckman). […] Fluorescence was monitored every minute using monochromators set to wavelengths of 485±20 nm (excitation) and 528±20 nm (emission). Alternatively, time points were quenched with equal volumes of 2× Tricine SDS-sample buffer, resolved on 16% Tricine gels (Life Technologies), and imaged with a blue laser and fluorescein emission filters on a Typhoon Imager (GE Healthcare). APP+Spi7-Flag and HA-EcGlpG were co-reconstituted as above, resolved by SDS-PAGE, detected by 2-color anti-Flag and anti-HA western analysis, and imaged with an Odyssey infrared scanner (LiCor Biosciences).
All data were analyzed and graphed using the R language and environment. Initial rates were extracted from real-time curves between 4 and 14 minutes using the slope (m) in a linear model: y=mx+b. […]

The next experiment deals with T2, HA-EcGlpG (Escherichia coli, UniProt P09391).
T2 construct: GST (cleaved yes); made in house; host or cells: E. coli C43 (DE3)
T2 sequence (P09391 1-276): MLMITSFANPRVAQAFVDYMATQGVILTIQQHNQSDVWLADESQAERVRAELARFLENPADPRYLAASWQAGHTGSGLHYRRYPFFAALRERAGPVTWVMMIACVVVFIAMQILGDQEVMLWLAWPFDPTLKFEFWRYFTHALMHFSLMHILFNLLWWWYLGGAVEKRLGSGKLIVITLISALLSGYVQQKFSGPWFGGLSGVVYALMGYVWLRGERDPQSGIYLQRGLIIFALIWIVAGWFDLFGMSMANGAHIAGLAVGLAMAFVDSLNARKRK
The experiment in a line: Proteolysis assay in detergent micelles. In kind it is biochemical. The following applies: faster in detergent. As for the experimental part: Cleavage reactions of APP+Spi7-Flag were performed as described previously and imaged with an Odyssey infrared scanner (LiCor Biosciences) (Baker and Urban, 2012; Baker et al., 2007). […] Reactions were quenched and analyzed on 16% tricine gels as above. Actual substrate concentrations were calibrated using FITC-TatA standards analyzed in parallel.

In the next experiment the target is T3, E. coli GlpG (Escherichia coli, UniProt P09391).
T3 construct: GST (cleaved yes); made in house; host or cells: E. coli C43 (DE3)
The experiment in a line: Inducible reconstitution and real-time proteolysis assay in proteoliposomes. It counts as biochemical. How it is done: as §1
All data were analyzed and graphed using the R language and environment. Initial rates were extracted from real-time curves between 4 and 14 minutes using the slope (m) in a linear model: y=mx+b. Initial rates versus substrate concentration of reconstituted reactions were modeled using the Hill-modified Michaelis Menten equation: v0=(Vmax*[S0]^h)/(Km^h+[S0]^h). […]
To establish controlled conditions for a Michaelis-Menten kinetic system, we lowered GlpG levels to 4 pmoles while varying substrate from 20 to 1600 pmoles and co-reconstituted both into 200 nm proteoliposomes comprised of E. coli lipids to preserve its physiological environment as much as possible (FIG. 9A). […] Finally, FITC-TatA reconstituted in both orientations in approximately equal proportions, as quantified by reacting single engineered cysteines with membrane-impermeable dyes (FIG. 3A). […]

For experiment [1], the target named is inactive EcGlpG mutants (His-EcGlpG C104A+H254A; HA-EcGlpG S201A+H254A). In kind it is binding, Escherichia coli. The note with it: gel filtration and co-precipitation, non-equilibrium; read-out: Kd (low affinity). (In gel filtration, larger molecules generally elute earlier.)
Description: (§2) 2.5 μM His-tagged EcGlpG C104A+H254A with 70 μM FITC-TatA was incubated with pre-equilibrated Ni^2+-NTA resin (Qiagen) for 3 hours at room temperature. The resin was washed, and bound proteins were eluted with SDS-sample buffer for 30 minutes. FITC-TatA was detected as above using a 16% Tricine gel and a Typhoon Imager. His-EcGlpG C104A+H254A was detected by western blot with the mouse anti-penta-His antibody (Qiagen), and imaged with an Odyssey infrared scanner (LiCor Biosciences).
(§3) Two Superdex 200 PC 3.2/30 high-resolution gel filtration columns (GE Healthcare) were connected in tandem to a ProStar 410 HPLC system (Agilent/Varian), and equilibrated with 9.5 μM FITC-TatA in 2 mM phosphate buffer pH 7.4, 25 mM Tris pH 7.4, 120 mM NaCl, 0.15% Sarkosyl, 0.1% DDM, 1 mM DTT. 20 μM HA-EcGlpG S201A+H254A was preincubated with 9.5 μM FITC-TatA, and 50 μL was injected using an Autosampler 410 onto the columns at a flow rate of 0.05 mL/minute. Elution was monitored by absorbance at all wavelengths between 200 to 600 nm simultaneously using a PDA 330 detector. The FITC-TatA peak was quantified relative to known FITC-TatA concentration standards that were run on the columns equilibrated with 9.5 μM FITC alone in buffer. Conventional gel filtration was conducted under similar conditions, except the columns were equilibrated with buffer lacking FITC-TatA.
Experiment [2] addresses T4, inactive EcGlpG mutants (His-EcGlpG C104A+H254A; HA-EcGlpG S201A+H254A) (Escherichia coli, UniProt P09391, C104A/H254A).
T4 construct: made in house
It counts as binding. The following applies: co-precipitation.
Description: as §2, §3

For experiment [3], the target named is T5, catalytically inactive TMR-GlpG (C104A+W196TMR+H254A) (Escherichia coli, UniProt P09391, C104A/H254A/W196C).
T5 construct: His (N); TMR (tetramethylrhodamine-5-maleimide) dye on the side chain of Cys196; made in house
T5 sequence (P09391 1-276 C104A/W196C/H254A): T2 sequence (P09391 1-276) with C104A, W196C, H254A
The experiment in a line: FRET analysis of protease-substrate affinity in membranes. In kind it is binding. The note with it: in proteoliposomes. As for the experimental part:
Purified N-terminally His-tagged EcGlpG H254A+C104A+W196C protein was labeled at the single cysteine residue with the FRET acceptor tetramethylrhodamine-5-maleimide (TMR) (Life Technologies). Reconstitutions into E. coli liposomes were performed as described above, except that 30 pmoles of TMR-labeled protein was mixed with 25-800 pmoles of the FITC-TatA ligand. Following reconstitution, the samples were incubated at 37° C. in a Synergy H4 Hybrid plate reader. Fluorescence was measured with excitation at 485 nm and emission from 510-600 nm in 5 nm intervals. The FRET interaction was calculated at the 580 nm emission wavelength by subtracting the TMR-labeled GlpG protein alone and the FITC-TatA alone samples from the sample containing both macromolecules.

The test system of experiment [4] is three different rhomboid proteases. In words: Manual 384-well compound screen in proteoliposomes. It counts as biochemical. The following applies: 1 hour at 37° C., no compound pre-incubation. As for the experimental part:
FIG. 12. Assay Evaluation in Manual Compound Screens. […] B. We assayed 3 different rhomboid proteases independently in hand-pipetted 384-well screens against a custom-assembled library of protease inhibitors, combinatorial compounds, and membrane enzyme inhibitors (all in DMSO). Assays were conducted for 1 hour at 37° C. and fluorescence intensity was read every 2 minutes. Graphed are the 60 minute values, with the last (rightmost) 7 wells being the isocoumarin inhibition controls.
An important consideration is assay suitability for HTS, which we evaluated by manually screening a diverse panel of class-specific protease inhibitors (natural products, sulphonyl fluorides, hydroxamate-based metalloprotease inhibitors, vinyl sulfones, isocoumarins, chloromethyl ketones, proteasomal inhibitors, aspartyl protease inhibitors, cysteine protease inhibitors), a combinatorial library of peptide diphenyl-phosphonates, and over a dozen lipid enzyme inhibitors/drugs (some of which are known to affect other intramembrane proteases). We hand-assembled this library of 111 compounds because it represents likely candidates for real rhomboid inhibitors on the one hand, and on the other poses challenges for assay performance because most are chemically-reactive (warhead) molecules. […]

Another experiment addresses EcGlpG (Escherichia coli, UniProt P09391). The following applies: 37° C. for 3 hours. How it is done:
Rhomboid protein in 50 mM Tris pH 7.4, 150 mM NaCl, 0.1% DDM was incubated with either 10% DMSO only or carrying […] JLK6 at 37° C. for 3 hours, purified using a C4 ZipTip, and analyzed by mass spectrometry as described previously (Pierrat et al., 2011).

These results are taken from US10030260B2, “Inducible reconstitution and real-time quantitative kinetic system for the study of intramembrane enzymes” (THE JOHNS HOPKINS UNIVERSITY, priority 2012, dated 2018).

The kcat is the maximal rate divided by the concentration of active sites. A word on the Kd: it is the constant that tells how readily two partners part at equilibrium.

Changes are numbered by the printed parent chain. “Also recorded” adds a separate entry of the source. Where a SMILES comes first, the peptide text is derived from it. The star is where a group is joined. FITC = O=C1OC2(c3ccc(O)cc3Oc3cc(O)ccc32)c2ccc(NC(=S)*)cc21; βAla = NCCC(=O)O

T4 sequence (P09391 whole entry C104A/H254A): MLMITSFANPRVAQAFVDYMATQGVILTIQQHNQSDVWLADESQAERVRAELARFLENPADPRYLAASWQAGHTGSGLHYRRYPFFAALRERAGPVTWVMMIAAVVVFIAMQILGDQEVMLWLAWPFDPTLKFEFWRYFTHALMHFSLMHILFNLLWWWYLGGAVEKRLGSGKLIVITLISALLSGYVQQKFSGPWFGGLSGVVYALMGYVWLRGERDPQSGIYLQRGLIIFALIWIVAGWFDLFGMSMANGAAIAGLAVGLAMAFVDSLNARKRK

Regarding “Spitz: Drosophila signaling molecule Spitz residues 135-168 of 186, FITC-labelled substrate”, in the experiment with HA-PsAarA, the “kcat and KM relative to TatA” value is given as “lower kcat without any significant change in KM”.

For `CC[C@H](C)[C@H](NC(=O)[C@H](CC(C)C)NC(=O)[C@@H](NC(=O)[C@@H](NC(=O)[C@H](CC(C)C)NC(=O)[C@H](CC(C)C)NC(=O)[C@H](C)NC(=O)[C@@H](NC(=O)[C@@H](NC(=O)[C@@H](NC(=O)[C@H](CC(C)C)NC(=O)[C@H](CCC(N)=O)NC(=O)[C@H](Cc1c[nH]c2ccccc12)NC(=O)[C@@H]1CCCN1C(=O)[C@H](CO)NC(=O)CNC(=O)[C@H](Cc1ccccc1)NC(=O)[C@H](C)NC(=O)[C@H](C)NC(=O)[C@@H](NC(=O)[C@H](C)NC(=O)[C@@H](NC(=O)[C@@H](NC(=O)[C@H](CO)NC(=O)[C@H](CCC(=O)O)NC(=O)[C@H](CCSC)NC(=O)CCNC(=S)Nc1ccc2c(c1)C(=O)OC21c2ccc(O)cc2Oc2cc(O)ccc21)[C@@H](C)O)[C@@H](C)CC)[C@@H](C)O)[C@@H](C)CC)[C@@H](C)CC)[C@@H](C)CC)[C@@H](C)CC)[C@@H](C)CC)C(=O)N[C@@H](Cc1ccccc1)C(=O)NCC(=O)N[C@H](C(=O)N[C@@H](CCCCN)C(=O)N[C@@H](CCCCN)C(=O)N[C@@H](CC(C)C)C(=O)N[C@@H](CCCNC(=N)N)C(N)=O)[C@@H](C)O` [FITC-TatA] ({FITC-βAla}-MESTIATAAFGSPWQLIIIALLIILIFGTKKLR-NH2), at HA-EcGlpG, the “kcat in detergent relative to proteoliposomes” value is listed as about 6.5 fold. In addition, the KM at E. coli GlpG (proteoliposomes of E. coli lipids, relative to phospholipid) is given as 0.14±0.02 mole percent. For the same molecule, the kcat on E. coli GlpG (proteoliposomes, enzyme saturated with substrate) is 0.0063 ± 0.00021 s⁻¹. Besides, the Kd in experiment [1] was over 800 µM. Besides, in experiment [2], the “FITC-TatA eluting with His-EcGlpG” value was under 0.1%. For the same molecule, the “apparent Kd” value in experiment [3] is 0.08±0.026 mole percent.

On to `O=c1occc2ccccc12` [isocoumarin], for which, in experiment [4], the inhibition in screen entry is “obvious evidence of inhibition of all three rhomboid proteases”.

For `COc1oc(=O)c2cc(N)ccc2c1Cl` [JLK6, reference compound], the “effect on fluorescence signal and cleavage product of FITC-TatA cleavage” value on E. coli GlpG (proteoliposomes, 37° C., pretreatment with inhibitor) is “blocked generation of the fluorescence signal and cleavage product; also recorded: abrogated signal to background”. In addition, the “mass shift of enzyme after incubation with inhibitor” value on EcGlpG is recorded as “complete mass shift”.
